According to publication PMC9240354, “Pharmacokinetics, Pharmacodynamics and Antiviral Efficacy of the MEK Inhibitor Zapnometinib in Animal Models and in Humans” (Frontiers in Pharmacology, 2022):

Legend:
in vivo = details: beagle, dog, po, 30 mg/kg
MEK = MEK inhibition in PBMCs of healthy human volunteers (pERK/ERK, Wes); assay type: in vivo
Experimental: PBMCs were isolated from the same blood samples (30 µl mouse blood, 50 µl hamster blood, or 1 ml dog blood) used for pharmacokinetic analysis. After plasma separation as described in the section above (Blood sampling and preparation of plasma samples), the remaining red blood cells were lysed by adding 1 volume of red blood cell (RBC) lysis buffer (Thermo Fisher Scientific, Waltham, MA, United States) (300 µl for mice, 500 µl for hamster, and 10 ml for dogs). The samples were incubated for 15 min at RT and centrifuged at 500 x g for 5 min (RT). The supernatant was removed completely, and the pellet was washed twice with PBS. The PBMC cell pellets were store at −80°C until further analysis. PBMCs of 8 ml human blood were isolated using CPT^TM tubes. After a 20-min centrifugation at 1,650 x g at room temperature, the plasma was collected for PK analysis as described in the section above (Blood sampling and preparation of plasma samples). The PBMC layer was collected in a 15 ml tube (Greiner Bio-One, Frickenhausen, Germany), and washed twice with PBS by centrifugation at 300 x g for 10 min at RT. The PBMC pellets were store at −80°C until further PD assessment.
The pharmacodynamic assessment was performed using the Wes™ (Simple Western™) system which uses capillary electrophoresis to separate, identify and quantify proteins of interest. A chemiluminescence signal for each identified protein is detected and the area under the peak is calculated, which is then used for quantification. The 0.1x Sample Buffer, 400 mM dithiothreitol (DTT) solution, 5x Fluorescence Master Mix, and the Biotinylated Ladder (ProteinSimple®, Abingdon, Oxford, United Kingdom) were prepared according to manufacturer’s instructions. For all species, PBMCs were lysed in 1x radioimmunoprecipitation assay (RIPA) buffer (containing 0.24% (w/v) tris base (Sigma-Aldrich, St. Louis, MO, United States), 0.88% (w/v) NaCl (Carl Roth GmbH, Karlsruhe, Germany), 0.2% (v/v) 500 mM EDTA (Sigma-Aldrich), 1% (v/v) Triton X-100 (Sigma-Aldrich), 0.5% (w/v) sodium deoxycholate (Sigma-Aldrich), 0.1% (w/v) sodium dodecyl sulfate (SDS) (Carl Roth), 10% (v/v) glycerol (Carl Roth), 0.05% phenylmethyl sulfonyl fluoride (PMSF) (Carl Roth), 0.01% Benzonase® Nuclease (Sigma-Aldrich), protease inhibitor cocktail (Roche, Basel, Switzerland), and phosphatase inhibitor cocktail (Roche) in H2O), further diluted with 0.1x Sample Buffer (ProteinSimple®, Abingdon, Oxford, United Kingdom) to adjust the protein concentration to 1 μg/μl. Then the 5x Fluorescence Master Mix in DTT (ProteinSimple®) was added, and the samples were denatured for 5 min at 95°C, loaded onto the assay plate and analyzed using specific antibodies. […] The anti-rabbit secondary antibody (Cat# DM-001) was also purchased from ProteinSimple® and was ready to use. Data were analyzed with Compass software for simple western (ProteinSimple®). Using the ratio of pERK to ERK of each sample compared to control (pre-dose), the level of ERK phosphorylation was calculated and then converted into the percentage level of MEK inhibition.

[1] = mice
clinical = details: both, human, in vivo; for AUC(0-t): healthy volunteers, n = 8
[2] = single oral dose 100 mg, vs pre-dose
[3] = single oral dose 300 mg, vs pre-dose
[4] = single oral dose 600 mg, vs pre-dose
[5] = single oral dose 900 mg, vs pre-dose

SMILES: O=C(O)c1ccc(F)c(F)c1Nc1ccc(I)cc1Cl [zapnometinib, 2-(2-Chloro-4-Iodophenylamino)-N-3,4-Difluoro benzoic acid]
- half-life (in vivo): 4 to 5 h
- MEK inhibition at Cmax (MEK; doses 100, 300 and 600 mg taken together): approximately 60%
- MEK inhibition at 24 h (MEK; [2]): 35 ± 25%
- MEK inhibition at Cmax (MEK; [2]): 63 ± 8%
- MEK inhibition at 24 h (MEK; [3]): 41 ± 26%
- MEK inhibition at Cmax (MEK; [3]): 61 ± 18%
- MEK inhibition at 24 h (MEK; [4]): 37 ± 20%
- MEK inhibition at Cmax (MEK; [4]): 64 ± 22%
- MEK inhibition at 24 h (MEK; [5]): 26 ± 26%
- MEK inhibition at Cmax (MEK; [5]): 79 ± 20%
- plasma concentration two hours after the second administration ([1]; 25 mg/kg p.o. twice, t = 10 h): 101000 ± 16000 ng/mL
- plasma concentration prior to the second treatment ([1]; 25 mg/kg p.o., t = 8 h): 36000 ± 8000 ng/mL
- half-life (clinical): 19 h
- Cmax (clinical; po, 100 mg): 9000 ± 2000 ng/mL
- Tmax (clinical; po, 100 mg): 2 h
- half-life (clinical; po, 100 mg): 19.6 ± 5.3 h
- AUC(0-t) (clinical; po, 100 mg, AUC0-t, single oral dose 100 mg): 115 ± 10 µg·h/mL
- AUC(0-t) (clinical; po, 100 mg, AUC0–24 h, single oral dose 100 mg): 84 ± 9 µg·h/mL
- Cmax (clinical; po, 300 mg): 13000 ± 4000 ng/mL
- Tmax (clinical; po, 300 mg): 4 h
- half-life (clinical; po, 300 mg): 19.8 ± 5.8 h
- AUC(0-t) (clinical; po, 300 mg, AUC0-t, single oral dose 300 mg): 241 ± 18 µg·h/mL
- AUC(0-t) (clinical; po, 300 mg, AUC0–24 h, single oral dose 300 mg): 157 ± 16 µg·h/mL
- Cmax (clinical; po, 600 mg): 35000 ± 7000 ng/mL
- Tmax (clinical; po, 600 mg): 4 h
- half-life (clinical; po, 600 mg): 21.9 ± 6.8 h
- AUC(0-t) (clinical; po, 600 mg, AUC0-t, single oral dose 600 mg): 617 ± 51 µg·h/mL
- AUC(0-t) (clinical; po, 600 mg, AUC0–24 h, single oral dose 600 mg): 411 ± 44 µg·h/mL
- Cmax (clinical; po, 900 mg): 46000 ± 16000 ng/mL
- Tmax (clinical; po, 900 mg): 4 h
- half-life (clinical; po, 900 mg): 23.7 ± 8.2 h
- AUC(0-t) (clinical; po, 900 mg, AUC0-t, single oral dose 900 mg): 1000 µg·h/mL
- AUC(0-t) (clinical; po, 900 mg, AUC0–24 h, single oral dose 900 mg): 629 ± 83 µg·h/mL
